Assay results: patent publication US8916593B2, “Alkoxy-substituted 2-aminopyridines as ALK inhibitors” (Pfizer Inc., priority 2010, dated 2014)

How the values were obtained:
cMet enzyme = biological target: T1, cMet enzyme (Homo sapiens, UniProt P08581); test: cMet enzymatic activity assay; assay type: biochemical; conditions: purified cMet enzyme 7.5 nM, ATP 17 μM (Km)
T1 construct: RTC Lot#032006
Experimental: cMet Enzymatic Activity Assay
Compounds were added at a final concentration of 2% DMSO in half-log dilutions, starting at 20 μM final concentration. The reactions were initiated by addition of 10 μL of peptide/ATP mix to 10 μL enzyme and 5 μL of compound in 384-well plate. […] Substrate and phosphorylated product were separated with an upstream voltage of −2650 V, a downstream voltage of −500V, and a screen pressure of −1.5 psi. The relative peak heights of substrate and product were measured and ratios were calculated using HTS Well Analyzer Software version 5.2.43 from the manufacturer.

[1] = biological target: EML4-ALK wt v1 in NIH-3T3 cells (Homo sapiens, UniProt Q9UM73)
[2] = biological target: T2, human recombinant wild-type ALK kinase domain (amino acids 1093-1411) (Homo sapiens, UniProt Q9UM73); test: ALK enzyme assay 2 (microfluidic mobility shift assay); assay type: biochemical;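 note: kinase reaction run 1 h at room temperature, conversion quantified by electrophoretic separation of fluorescent peptide substrate from phosphorylated product, about 15-20% turnover without inhibitor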
T2 construct: ALK kinase domain (amino acids 1093-1411); made in house
T2 sequence (Q9UM73 1093-1411): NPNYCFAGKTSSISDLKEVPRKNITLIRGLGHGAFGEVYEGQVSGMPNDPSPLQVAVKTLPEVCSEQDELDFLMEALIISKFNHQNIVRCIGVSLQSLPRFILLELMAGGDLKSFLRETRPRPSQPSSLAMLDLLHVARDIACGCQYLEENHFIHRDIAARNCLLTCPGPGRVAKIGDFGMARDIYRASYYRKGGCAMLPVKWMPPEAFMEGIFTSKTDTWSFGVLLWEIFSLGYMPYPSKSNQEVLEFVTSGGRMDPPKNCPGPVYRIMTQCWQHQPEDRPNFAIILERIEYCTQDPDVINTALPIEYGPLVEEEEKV
Experimental: The reactions were incubated for 1 h at room temperature, stopped by the addition of 0.1 M EDTA, pH 8, and the extent of reactions (˜15-20% conversion with no inhibitor) was determined after electrophoretic separation of the fluorescently labeled peptide substrate and phosphorylated product on an LabChip EZ Reader II (Caliper Life Sciences, Hopkinton, Mass.).

Chain of EML4-ALK wt v1 in NIH-3T3 cells (Q9UM73 with tags, fused parts or gaps): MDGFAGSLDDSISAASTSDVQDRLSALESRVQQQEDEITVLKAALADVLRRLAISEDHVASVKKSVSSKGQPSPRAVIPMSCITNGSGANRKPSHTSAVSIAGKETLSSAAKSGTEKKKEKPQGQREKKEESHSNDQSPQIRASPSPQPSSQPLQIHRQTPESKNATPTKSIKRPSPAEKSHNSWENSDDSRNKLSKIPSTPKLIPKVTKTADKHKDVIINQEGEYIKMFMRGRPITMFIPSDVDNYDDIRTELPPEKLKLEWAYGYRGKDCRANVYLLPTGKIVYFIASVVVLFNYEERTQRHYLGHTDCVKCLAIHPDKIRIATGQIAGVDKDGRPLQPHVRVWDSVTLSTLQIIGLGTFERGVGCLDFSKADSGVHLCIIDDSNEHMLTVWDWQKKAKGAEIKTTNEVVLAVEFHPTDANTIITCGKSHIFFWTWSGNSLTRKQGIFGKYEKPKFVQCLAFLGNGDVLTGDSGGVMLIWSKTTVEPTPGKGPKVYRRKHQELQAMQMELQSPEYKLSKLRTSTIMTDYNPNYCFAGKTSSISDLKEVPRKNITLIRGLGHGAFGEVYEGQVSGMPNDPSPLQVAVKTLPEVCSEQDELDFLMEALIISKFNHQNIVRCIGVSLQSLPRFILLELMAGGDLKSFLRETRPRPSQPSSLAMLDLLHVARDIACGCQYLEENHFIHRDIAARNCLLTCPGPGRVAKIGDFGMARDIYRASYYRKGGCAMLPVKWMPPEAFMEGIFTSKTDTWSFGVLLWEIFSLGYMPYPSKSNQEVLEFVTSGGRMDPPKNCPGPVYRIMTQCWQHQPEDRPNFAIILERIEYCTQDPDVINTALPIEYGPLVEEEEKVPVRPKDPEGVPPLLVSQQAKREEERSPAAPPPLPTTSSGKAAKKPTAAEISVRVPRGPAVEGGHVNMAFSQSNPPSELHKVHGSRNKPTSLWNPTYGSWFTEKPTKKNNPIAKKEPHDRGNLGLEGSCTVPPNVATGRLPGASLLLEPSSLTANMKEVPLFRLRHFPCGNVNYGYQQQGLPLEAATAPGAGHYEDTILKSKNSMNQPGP
T1 sequence (P08581 25-1390): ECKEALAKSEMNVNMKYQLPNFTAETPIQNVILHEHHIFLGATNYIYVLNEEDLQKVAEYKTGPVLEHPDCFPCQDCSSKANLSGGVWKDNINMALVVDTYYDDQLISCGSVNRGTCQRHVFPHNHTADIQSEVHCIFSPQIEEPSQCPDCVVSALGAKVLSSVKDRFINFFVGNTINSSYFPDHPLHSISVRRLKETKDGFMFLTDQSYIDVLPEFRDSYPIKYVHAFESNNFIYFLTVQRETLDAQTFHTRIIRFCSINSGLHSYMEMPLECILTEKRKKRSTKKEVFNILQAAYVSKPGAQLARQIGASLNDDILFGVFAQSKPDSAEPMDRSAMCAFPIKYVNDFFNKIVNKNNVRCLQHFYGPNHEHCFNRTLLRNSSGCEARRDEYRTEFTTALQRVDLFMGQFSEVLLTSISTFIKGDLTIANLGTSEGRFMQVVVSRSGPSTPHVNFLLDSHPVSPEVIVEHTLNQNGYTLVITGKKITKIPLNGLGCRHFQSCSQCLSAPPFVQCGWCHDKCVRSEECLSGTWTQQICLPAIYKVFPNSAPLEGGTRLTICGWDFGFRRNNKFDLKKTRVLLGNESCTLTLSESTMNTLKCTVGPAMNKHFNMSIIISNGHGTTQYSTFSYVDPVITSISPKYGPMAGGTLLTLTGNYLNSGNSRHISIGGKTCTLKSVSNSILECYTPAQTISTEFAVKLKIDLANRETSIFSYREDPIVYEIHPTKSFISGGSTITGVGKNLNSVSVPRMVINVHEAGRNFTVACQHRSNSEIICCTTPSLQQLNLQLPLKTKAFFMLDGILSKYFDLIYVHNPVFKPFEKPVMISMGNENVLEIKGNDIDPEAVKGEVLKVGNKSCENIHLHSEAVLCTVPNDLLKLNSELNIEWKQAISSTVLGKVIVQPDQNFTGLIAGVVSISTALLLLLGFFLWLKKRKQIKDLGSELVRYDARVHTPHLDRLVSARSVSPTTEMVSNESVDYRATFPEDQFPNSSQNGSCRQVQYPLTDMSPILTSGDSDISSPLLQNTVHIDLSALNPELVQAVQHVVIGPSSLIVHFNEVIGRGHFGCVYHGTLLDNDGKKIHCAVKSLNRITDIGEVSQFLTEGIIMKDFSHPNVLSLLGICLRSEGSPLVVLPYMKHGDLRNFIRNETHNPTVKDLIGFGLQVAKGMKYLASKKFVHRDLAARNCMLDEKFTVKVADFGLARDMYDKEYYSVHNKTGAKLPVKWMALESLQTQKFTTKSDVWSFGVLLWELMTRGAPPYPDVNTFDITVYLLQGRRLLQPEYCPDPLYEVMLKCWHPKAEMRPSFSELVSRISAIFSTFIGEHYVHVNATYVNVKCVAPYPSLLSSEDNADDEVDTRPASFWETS

| SMILES | IC50 (cMet enzyme) | IC50 [1] | Ki [2] |
| --- | --- | --- | --- |
| C[C@@H](Oc1cc(-c2cnnn2C)cnc1N)c1cc(F)ccc1-n1nccn1 [Example 21, 3-{(1R)-1-[5-fluoro-2-(2H-1,2,3-triazol-2-yl)phenyl]-ethoxy)-5-(1-methyl-1H-1,2,3-triazol-5-yl)pyridin-2-amine] | 14400 nM | – | – |
| C[C@@H](Oc1cc(-c2ccnn2C)cnc1N)c1cc(F)ccc1-n1nccn1 [Example 30, 3-{(1R)-1-[5-fluoro-2-(2H-1,2,3-triazol-2-yl)phenyl]ethoxy}-5-(1-methyl-1H-pyrazol-5-yl)pyridin-2-amine] | 6110 nM | – | – |
| CC(Oc1cc(-c2ccnn2C)cnc1N)c1cc(F)ccc1-n1nccn1 (stereo not drawn) [Example 31, 3-{1-[5-fluoro-2-(2H-1,2,3-triazol-2-yl)phenyl]-ethoxy)-5-(1-methyl-1H-pyrazol-5-yl)pyridin-2-amine] | 13000 nM | – | – |
| Cc1[nH]ncc1-c1cnc(N)c(OC(C)c2cc(F)ccc2F)c1 (stereo not drawn) [Example 35, 3-[1-(2,5-difluorophenyl)ethoxy]-5-(5-methyl-1H-pyrazo-4-yl)pyridin-2-amine] | 5610 nM | – | – |
| C[C@@H](Oc1cc(-c2ccc(CO)c(S(C)(=O)=O)c2)cnc1N)c1cc(F)ccc1-n1nccn1 [Example 119, [4-(6-amino-5-{(1R)-1-[5-fluoro-2-(2H-1,2,3-triazol-2-yl)phenyl]ethoxy}pyridin-3-yl)-2-(methylsulfonyl)phenyl]methanol] | – | 4.39 nM | < 0.2 nM |
| Cc1nc(C#N)c(-c2cnc(N)c(O[C@H](C)c3cc(F)ccc3-n3nccn3)c2)o1 [Example 120, 5-(6-amino-5-{(1R)-1-[5-fluoro-2-(2H-1,2,3-triazol-2-yl)phenyl]ethoxy}pyridin-3-yl)-2-methyl-1,3-oxazole-4-carbonitrile] | – | 161 nM | 2.14 nM |
| C[C@@H](Oc1cc(-c2ccc(O)nc2)cnc1N)c1cc(F)ccc1-n1nccn1 [Example 121, 6′-amino-5′-{(1R)-1-[5-fluoro-2-(2H-1,2,3-triazol-2-yl)phenyl]ethoxy}-3,3′-bipyridin-6-ol] | – | 71.3 nM | 1.04 nM |
| C[C@@H](Oc1cc(-c2ccc(OC3CCNCC3)nc2)cnc1N)c1cc(F)ccc1-n1nccn1 [Example 122, 5-{(1R)-1-[5-fluoro-2-(2H-1,2,3-triazol-2-yl)phenyl]ethoxy}-6′-(piperidin-4-yloxy)-3,3′-bipyridin-6-amine] | – | 1.15 nM | < 0.2 nM |
| Cc1nn(C2CCNCC2)cc1-c1cnc(N)c(O[C@H](C)c2cc(F)ccc2-n2nccn2)c1 [Example 124, 3-{(1R)-1-[5-fluoro-2-(2H-1,2,3-triazol-2-yl)phenyl]ethoxy}-5-[3-methyl-1-(piperidin-4-yl)-1H-pyrazol-4-yl]pyridin-2-amine] | – | 2.04 nM | < 0.2 nM |
| Cc1c(-c2cnc(N)c(O[C@H](C)c3cc(F)ccc3-n3nccn3)c2)cnn1C1CCNCC1 [Example 125, 3-{(1R)-1-[5-fluoro-2-(2H-1,2,3-triazol-2-yl)phenyl]ethoxy}-5-[5-methyl-1-(piperidin-4-yl)-1H-pyrazol-4-yl]pyridin-2-amine] | – | 3.7 nM | < 0.2 nM |
| Cc1n[nH]c(C)c1-c1cnc(N)c(O[C@H](C)c2cc(F)ccc2-n2nccn2)c1 [Example 126, 5-(3,5-Dimethyl-1H-pyrazol-4-yl)-3-{(1R)-1-[5-fluoro-2-(2H-1,2,3-triazol-2-yl)phenyl]ethoxy}pyridin-2-amine] | – | 12.1 nM | < 0.193 nM |
| Cc1nn([C@H]2CCS(=O)(=O)C2)c(C)c1-c1cnc(N)c(O[C@H](C)c2cc(F)ccc2-n2nccn2)c1 [Example 127, 5-{1-[(3S)-1,1-dioxidotetrahydrothiophen-3-yl]-3,5-dimethyl-1H-pyrazol-4-yl}-3-{(1R)-1-[5-fluoro-2-(2H-1,2,3-triazol-2-yl)phenyl]ethoxy}pyridin-2-amine] | – | 2.54 nM | < 0.2 nM |
| C[C@@H](Oc1cc(-c2cnn(C3CCN(C(=O)CN(C)C)CC3)c2)cnc1N)c1cc(F)ccc1-n1nccn1 [Example 128, 1-{4-[4-(6-amino-5-{(1R)-1-[5-fluoro-2-(2H-1,2,3-triazol-2-yl)phenyl]ethoxy}pyridin-3-yl)-1H-pyrazol-1-yl]piperidin-1-yl}-2-(dimethylamino)ethanone] | – | 9.8 nM | < 0.2 nM |
| C[C@@H](Oc1cc(-c2ccnc(F)c2F)cnc1N)c1cc(F)ccc1-n1nccn1 [Example 129, 2′,3′-difluoro-5-{(1R)-1-[5-fluoro-2-(2H-1,2,3-triazol-2-yl)phenyl]ethoxy}-3,4′-bipyridin-6-amine] | – | 223 nM | 5.5 nM |
| C[C@@H](Oc1cc(-c2ccnc(N3CC(O)C3)c2F)cnc1N)c1cc(F)ccc1-n1nccn1 [Example 130, 1-(6-amino-3′-fluoro-5-{(1R)-1-[5-fluoro-2-(2H-1,2,3-triazol-2-yl)phenyl]ethoxy}-3,4′-bipyridin-2′-yl)azetidin-3-ol] | – | 2.25 nM | 0.26 nM |
| C[C@@H](Oc1cc(-c2ccnc(N3CCOCC3)c2F)cnc1N)c1cc(F)ccc1-n1nccn1 [Example 131, 3′-fluoro-5-{(1R)-1-[5-fluoro-2-(2H-1,2,3-triazol-2-yl)phenyl]ethoxy}-2′-(morpholin-4-yl)-3,4′-bipyridin-6-amine] | – | 17.6 nM | 0.638 nM |
| C[C@@H](Oc1cc(-c2ccnc(N3CCN(C)CC3)c2F)cnc1N)c1cc(F)ccc1-n1nccn1 [Example 132, 3′-fluoro-5-{(1R)-1-[5-fluoro-2-(2H-1,2,3-triazol-2-yl)phenyl]ethoxy}-2,-(4-methylpiperazin-1-yl)-3,4′-bipyridin-6-amine] | – | 5.67 nM | < 0.2 nM |
| COc1ccc(F)cc1C(C)Oc1cc(-c2nsc(S(C)(=O)=O)n2)cnc1N (stereo not drawn) [Example 133, 3-[1-(5-fluoro-2-methoxyphenyl)ethoxy]-5-[5-(methylsulfonyl)-1,2,4-thiadiazol-3-yl]pyridin-2-amine] | – | 687 nM | 1.28 nM |
| CNCc1ccc(-c2cnc(N)c(OC(C)c3cc(F)ccc3OC)c2)cc1S(C)(=O)=O (stereo not drawn) [Example 134, 3-[1-(5-fluoro-2-methoxyphenyl)ethoxy]-5-{4-[(methylamino)methyl]-3-(methylsulfonyl)phenyl}pyridin-2-amine] | – | 9.1 nM | 0.12 nM |
| COc1ccc(F)cc1C(C)Oc1cc(-c2ccc(CO)c(S(C)(=O)=O)c2)cnc1N (stereo not drawn) [Example 136, [4-{6-amino-5-[1-(5-fluoro-2-methoxyphenyl)ethoxy]pyridin-3-yl}-2-(methylsulfonyl)phenyl]methanol] | – | 8.6 nM | 0.26 nM |
| COc1ccc(F)cc1C(C)Oc1cc(-c2sc(CO)nc2C)cnc1N (stereo not drawn) [Example 137, (5-{6-amino-5-[1-(5-fluoro-2-methoxyphenyl)ethoxy]pyridin-3-yl}-4-methyl-1,3-thiazol-2-yl)methanol] | – | 2.59 nM | 0.398 nM |
| COc1ccc(F)cc1C(C)Oc1cc(-c2ccc(C(C)N)nc2)cnc1N (stereo not drawn) [Example 138, 6′-(1-aminoethyl)-5-[1-(5-fluoro-2-methoxyphenyl)ethoxy]-3,3′-bipyridin-6-amine] | – | 8.33 nM | 0.32 nM |
| Cc1nn(C2CCNC2=O)cc1-c1cnc(N)c(O[C@H](C)c2cc(F)ccc2-n2nccn2)c1 (stereo partly drawn) [Example 139, 3-[4-(6-amino-5-{(1R)-1-[5-fluoro-2-(2H-1,2,3-triazol-2-yl)phenyl]ethoxy}pyridin-3-yl)-3-methyl-1H-pyrazol-1-yl]pyrrolidin-2-one] | – | 2.82 nM | < 0.2 nM |
| C[C@@H](Oc1cc(-c2cn([C@@H]3C[C@H]4CC[C@@H](C3)N4)nc2C#N)cnc1N)c1cc(F)ccc1-n1nccn1 [Example 140, 4-(6-amino-5-{(1R)-1-[5-fluoro-2-(2H-1,2,3-triazol-2-yl)phenyl]ethoxy}pyridin-3-yl)-1-[(3-exo)-8-azabicyclo[3.2.1]oct-3-yl]-1H-pyrazole-3-carbonitrile] | – | 15.9 nM | < 0.2 nM |
| C[C@@H](Oc1cc(-c2cnn([C@@H]3C[C@H]4CC[C@@H](C3)N4)c2C#N)cnc1N)c1cc(F)ccc1-n1nccn1 [Example 141, 4-(6-amino-5-{(1R)-1-[5-fluoro-2-(2H-1,2,3-triazol-2-yl)phenyl]ethoxy}pyridin-3-yl)-1-[(3-exo)-8-azabicyclo[3.2.1]oct-3-yl]-1H-pyrazole-5-carbonitrile] | – | 3.5 nM | < 0.2 nM |
| CNS(=O)(=O)c1cc(-c2cnc(N)c(O[C@H](C)c3cc(F)ccc3-n3nccn3)c2)ccc1OC [Example 142, 5-(6-amino-5-{(1R)-1-[5-fluoro-2-(2H-1,2,3-triazol-2-yl)phenyl]ethoxy}pyridin-3-yl)-2-methoxy-N-methylbenzenesulfonamide] | – | 3.75 nM | < 0.2 nM |
| CNS(=O)(=O)c1ccc(OC)c(-c2cnc(N)c(O[C@H](C)c3cc(F)ccc3-n3nccn3)c2)c1 [Example 143, 3-(6-amino-5-{(1R)-1-[5-fluoro-2-(2H-1,2,3-triazol-2-yl)phenyl]ethoxy}pyridin-3-yl)-4-methoxy-N-methylbenzenesulfonamide] | – | 8.98 nM | < 0.2 nM |
| COc1ccc(-c2cnc(N)c(O[C@H](C)c3cc(F)ccc3-n3nccn3)c2)cc1S(N)(=O)=O [Example 144, 5-(6-amino-5-{(1R)-1-[5-fluoro-2-(2H-1,2,3-triazol-2-yl)phenyl]ethoxy}pyridin-3-yl)-2-methoxybenzenesulfonamide] | – | 2.45 nM | < 0.2 nM |
| CCc1nc(CS(C)(=O)=O)sc1-c1cnc(N)c(O[C@H](C)c2cc(F)ccc2-n2nccn2)c1 [Example 145, (R)-5-(4-ethyl-2-((methylsulfonyl)methyl)thiazol-5-yl)-3-(1-(5-fluoro-2-(2H-1,2,3-triazol-2-yl)phenyl)ethoxy)pyridin-2-amine] | – | 10.5 nM | < 0.2 nM |
